Structures are written as SMILES.

One experiment concerns the target T1, Thymidylate kinase (Mycobacterium tuberculosis, UniProt P9WKE1).
T1 sequence (P9WKE1 whole entry): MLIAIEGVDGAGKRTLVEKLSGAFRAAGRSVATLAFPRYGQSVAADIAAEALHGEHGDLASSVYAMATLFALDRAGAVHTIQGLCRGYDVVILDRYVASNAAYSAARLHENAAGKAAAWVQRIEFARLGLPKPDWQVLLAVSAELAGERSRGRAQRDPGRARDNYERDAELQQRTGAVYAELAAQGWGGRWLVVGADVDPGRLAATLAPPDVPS
The experiment is described as follows: Binding affinity towards mycobacterium tuberculosis thymidine monophosphate kinase; NI=No inhibition.
The Ki is the dissociation constant of the complex between target and ligand, obtained from inhibition or displacement. The low end stands for tighter binding, the high end for weaker binding. For the compound `Cc1cn(Cc2ccc(CCC#N)cc2)c(=O)[nH]c1=O`, the Ki result is “Not Active”.

As for `Cc1cn(Cc2ccc(/C=C/C(=O)O)cc2)c(=O)[nH]c1=O`, the Ki entry is “Not Active”.

For `CCOC(=O)/C=C/c1ccc(Cn2cc(C)c(=O)[nH]c2=O)cc1`, the inhibitory constant (Ki) entry is on record as “Not Active”.

In the case of `O=c1[nH]c(=O)n(Cc2ccccc2)cc1F`, the Ki result is on record as “Not Active”.

Turning to `Cc1cn(Cc2ccc(/C=C/C#N)cc2)c(=O)[nH]c1=O`, the Ki result was “Not Active”.

The target of a further experiment is T1, Thymidylate kinase. The experiment is described as follows: Binding affinity towards mycobacterium tuberculosis thymidine monophosphate kinase.
Compound `O=C(O)CCCc1ccc(Cn2cc(Br)c(=O)[nH]c2=O)cc1` came in with a Ki of 12.3 µM. That is a double-digit micromolar value.

The values above are taken from ChEMBL document CHEMBL1144358, “LEA3D: a computer-aided ligand design for structure-based drug design” (J Med Chem, 2005).
